From US10202413B2, “Neuroactive enantiomeric 15-, 16- and 17-substituted steroids as modulators for GABA type-A receptors” (priority 2013, dated 2019)
Like-named read-outs stand apart in the source and are kept apart here. Marks after values point to notes of the source that are not given here.

Columns and labels:
[1] = target: picrotoxin binding site on GABAA receptors; assay: [35S]-TBPS displacement (inhibition of [35S]-TBPS binding); details: non-competitive displacement of [35S]-TBPS; ± standard error of the mean
Protocol: The IC50 values for the compounds of the examples as non-competitive displacers of [^35S]-TBPS from the picrotoxin binding site on GABAA receptors are reported in Table 1.
Results presented are from duplicate experiments performed in triplicate. Error limits are calculated as standard error of the mean. Methods used are known in the art (see, e.g., Jiang, et al., Neurosteroid analogues. 9. Conformationally constrained pregnanes: structure-activity studies of 13,24-cyclo-18,21-dinorcholane analogues of the GABA modulatory and anesthetic steroids (3α,5α)- and (3α,5β)-3-hydroxypregnan-20-one. J. Med. Chem. 2003, 46, 5334-5348).

[2] = target: T1, rat α1β2γ2L type GABAA receptors expressed in Xenopus laevis oocytes (Rattus norvegicus, UniProt P18508+P62813+P63138, INS375LLRMFSFK); assay: Oocyte electrophysiology: potentiation of chloride currents mediated by 2 μM GABA, and direct gating; format: cell-based; details: ± SEM (N≥4); for ratio of currents measured in the presence/absence of added compound, 0.1 μM: 0.1 μM compound; for ratio of currents measured in the presence/absence of added compound, 0.1 μM / ratio of currents measured in the presence/absence of added compound, 1.0 μM / ratio of currents measured in the presence/absence of added compound, 10 μM: 2 μM GABA; for ratio of currents measured in the presence/absence of added compound, 1.0 μM: 1.0 μM compound; for ratio of currents measured in the presence/absence of added compound, 10 μM: 10 μM compound; for (gating) 10 μM: ratio of compound only current/GABA current: direct current gated by 10 μM compound in the absence of GABA
T1 construct: expressed in transfected cells; host or cells: Xenopus laevis oocytes
Protocol: The compounds of the present disclosure were evaluated for the ability to potentiate chloride currents mediated by 2 μM GABA at rat α1β2γ2L type GABAA receptors expressed in Xenopus laevis oocytes and the results are shown in Table 2.
The GABA concentration used for the control response was 2 μM. Each compound was evaluated on at least four different oocytes at the concentrations indicated, and the results reported are the ratio of currents measured in the presence/absence of added compound. Gating represents direct current gated by 10 μM compound in the absence of GABA, and this current is reported as the ratio of compound only current/[…] current. Error limits are calculated as standard error of the mean (N≥4). Receptor expression and whole-cell and single-channel recordings were carried out as described previously (see Jiang, et al., Neurosteroid analogues. 9. Conformationally constrained pregnanes: structure-activity studies of 13,24-cyclo-18,21-dinorcholane analogues of the GABA modulatory and anesthetic steroids (3α,5α)- and (3α,5β)-3-hydroxypregnan-20-one. J. Med. Chem. 2003, 46, 5334-5348).

Tadpole = Tadpole loss of righting (LRR) and loss of swimming (LSR) reflexes; format: in vivo; details: for EC50: ± SEM; for tadpoles that lost LRR / tadpoles that lost LSR: concentration of 3 μM, number of 10 tadpoles
Description: Table 3 discloses the anesthetic effects of the compounds of the present disclosure. In particular, the anesthetic effect of the compounds of the present disclosure on Loss of Righting Reflex (LRR) and Loss of Swimming Reflex (LSR).
Methods used are known in the art (see, e.g., Jiang, et al., Neurosteroid analogues. 9. Conformationally constrained pregnanes: structure-activity studies of 13,24-cyclo-18,21-dinorcholane analogues of the GABA modulatory and anesthetic steroids (3α,5α)- and (3α,5β)-3-hydroxypregnan-20-one. J. Med. Chem. 2003, 46, 5334-5348). Error limits are calculated as standard error of the mean (N=10 or more animals at each of five or more different concentrations).

[3] = loss of righting reflex, read-out: Tadpole LRR EC50
[4] = loss of swimming reflex, read-out: Tadpole LSR EC50

T1 sequence (P62813 28-455, stated change not applied): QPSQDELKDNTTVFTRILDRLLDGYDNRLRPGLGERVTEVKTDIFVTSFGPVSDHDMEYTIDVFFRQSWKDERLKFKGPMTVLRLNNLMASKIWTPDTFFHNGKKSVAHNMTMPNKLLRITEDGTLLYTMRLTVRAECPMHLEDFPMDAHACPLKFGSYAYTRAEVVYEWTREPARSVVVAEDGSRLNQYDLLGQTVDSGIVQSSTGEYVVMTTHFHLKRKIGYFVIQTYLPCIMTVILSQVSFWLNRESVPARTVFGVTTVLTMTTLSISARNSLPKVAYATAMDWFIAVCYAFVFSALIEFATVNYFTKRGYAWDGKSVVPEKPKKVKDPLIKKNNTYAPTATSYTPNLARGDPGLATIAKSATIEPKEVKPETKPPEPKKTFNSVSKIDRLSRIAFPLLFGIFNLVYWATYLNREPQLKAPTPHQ
T1 sequence (P63138 26-474, stated change not applied): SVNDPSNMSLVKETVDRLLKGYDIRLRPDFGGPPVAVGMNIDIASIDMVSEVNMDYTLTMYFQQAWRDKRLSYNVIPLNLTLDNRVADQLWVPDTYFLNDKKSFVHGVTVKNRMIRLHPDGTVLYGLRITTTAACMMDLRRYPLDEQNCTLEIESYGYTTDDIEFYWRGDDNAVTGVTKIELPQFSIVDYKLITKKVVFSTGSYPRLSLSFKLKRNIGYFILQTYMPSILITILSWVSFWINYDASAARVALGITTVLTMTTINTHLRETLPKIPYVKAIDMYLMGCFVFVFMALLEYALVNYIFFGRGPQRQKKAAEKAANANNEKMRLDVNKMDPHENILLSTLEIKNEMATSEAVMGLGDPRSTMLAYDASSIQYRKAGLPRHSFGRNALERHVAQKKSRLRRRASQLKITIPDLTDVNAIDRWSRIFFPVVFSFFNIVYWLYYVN
T1 sequence (P18508 with tags, fused parts or gaps INS375LLRMFSFK): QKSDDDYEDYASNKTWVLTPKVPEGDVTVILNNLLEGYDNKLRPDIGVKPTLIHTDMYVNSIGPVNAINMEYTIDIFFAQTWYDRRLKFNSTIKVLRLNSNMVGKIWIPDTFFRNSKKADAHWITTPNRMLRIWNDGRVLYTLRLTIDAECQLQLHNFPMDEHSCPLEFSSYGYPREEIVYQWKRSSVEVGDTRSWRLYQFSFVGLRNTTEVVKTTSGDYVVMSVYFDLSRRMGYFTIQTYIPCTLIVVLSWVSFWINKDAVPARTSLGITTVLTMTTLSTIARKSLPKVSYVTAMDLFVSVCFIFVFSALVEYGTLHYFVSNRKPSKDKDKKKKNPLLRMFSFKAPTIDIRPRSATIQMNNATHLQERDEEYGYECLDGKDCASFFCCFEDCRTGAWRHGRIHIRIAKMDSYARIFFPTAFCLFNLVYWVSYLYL

## O=C1C[C@@H]2CC[C@@H]3[C@H](CC[C@@H]4C[C@@H](O)CC[C@H]43)[C@H]2C1
other
  melting point: 168 to 169 °C

## C[C@@]12CC[C@H]3[C@@H]4CC[C@H](O)C[C@H]4CC[C@@H]3[C@H]1CCC2=O [KK-18, (3β,5β,8α,9β,10α,13α,14β)-3-Hydroxyestran-17-one]
[1]
  IC50: 627 ± 100 nM
[2]
  ratio of currents measured in the presence/absence of added compound, 0.1 μM: 1.07 ± 0.05
  ratio of currents measured in the presence/absence of added compound, 1.0 μM: 1.64 ± 0.11
  ratio of currents measured in the presence/absence of added compound, 10 μM: 9.34 ± 1.36
  (gating) 10 μM: ratio of compound only current/GABA current: 0.13 ± 0.12
Tadpole; [3]
  EC50: 3200 ± 2030 nM
Tadpole; [4]
  EC50: > 10000 nM

## C[C@]1(O)CC[C@]2(C)[C@H](CC[C@H]3[C@H]2CC[C@@]2(C)C(=O)CC[C@H]32)C1 [KK-23, (3β,5β,8α,9β,10α,13α,14β)-3-Hydroxy-3-methylandrostan-17-one]
[1]
  IC50: 185 ± 28 nM
[2]
  ratio of currents measured in the presence/absence of added compound, 0.1 μM: 1.11 ± 0.15
  ratio of currents measured in the presence/absence of added compound, 1.0 μM: 3.31 ± 0.43
  ratio of currents measured in the presence/absence of added compound, 10 μM: 19.74 ± 5.64
  (gating) 10 μM: ratio of compound only current/GABA current: 0.09 ± 0.02
Tadpole; [3]
  EC50: 930 ± 530 nM
Tadpole; [4]
  EC50: 2810 ± 10 nM
other
  melting point: 183 to 185 °C

## C[C@]1(O)CC[C@]2(C)[C@@H](CC[C@H]3[C@H]2CC[C@@]2(C)C(=O)CC[C@H]32)C1 [KK-26, (3β,5α,8α,9β,10α,13α,14β)-3-Hydroxy-3-methylandrostan-17-one]
[1]
  IC50: 290 ± 33 nM
[2]
  ratio of currents measured in the presence/absence of added compound, 0.1 μM: 1.38 ± 0.10
  ratio of currents measured in the presence/absence of added compound, 1.0 μM: 5.10 ± 0.64
  ratio of currents measured in the presence/absence of added compound, 10 μM: 23.74 ± 2.88
  (gating) 10 μM: ratio of compound only current/GABA current: 0.49 ± 0.18
Tadpole; [3]
  EC50: 1880 nM
Tadpole; [4]
  EC50: 5480 ± 200 nM

## C[C@@]12CC[C@@H]3[C@H](CC[C@H]4C[C@@H](O)CC[C@]43C)[C@H]1CC(=O)C2 [KK-97, (3β,5α,8α,9β,10α,13α,14β)-3-Hydroxyandrostan-16-one]
[1]
  IC50: 112 ± 7 nM
[2]
  ratio of currents measured in the presence/absence of added compound, 0.1 μM: 1.75 ± 0.24
  ratio of currents measured in the presence/absence of added compound, 1.0 μM: 6.15 ± 0.41
  ratio of currents measured in the presence/absence of added compound, 10 μM: 30.62 ± 2.14
  (gating) 10 μM: ratio of compound only current/GABA current: 0.16 ± 0.04
Tadpole; [3]
  EC50: 490 ± 110 nM
Tadpole; [4]
  EC50: 1730 ± 30 nM
other
  melting point: 132 to 134 °C

## C[C@@]12CC[C@H]3[C@@H]4CC[C@H](O)C[C@@H]4CC[C@@H]3[C@H]1CC(=O)C2 [KK-102]
[1]
  IC50: 146 ± 18 nM
[2]
  ratio of currents measured in the presence/absence of added compound, 0.1 μM: 1.20 ± 0.02
  ratio of currents measured in the presence/absence of added compound, 1.0 μM: 4.23 ± 0.24
  ratio of currents measured in the presence/absence of added compound, 10 μM: 13.91 ± 1.38
  (gating) 10 μM: ratio of compound only current/GABA current: 0.04 ± 0.0
Tadpole; [3]
  EC50: 1210 ± 420 nM
Tadpole; [4]
  EC50: 5480 ± 120 nM
other
  melting point: 139 to 142 °C

## C[C@@]12CC[C@H]3[C@@H]4CC[C@H](O)C[C@H]4CC[C@@H]3[C@H]1CC(=O)C2 [KK-103]
[1]
  IC50: 238 ± 21 nM
[2]
  ratio of currents measured in the presence/absence of added compound, 0.1 μM: 0.97 ± 0.02
  ratio of currents measured in the presence/absence of added compound, 1.0 μM: 2.43 ± 0.02
  ratio of currents measured in the presence/absence of added compound, 10 μM: 10.52 ± 0.61
  (gating) 10 μM: ratio of compound only current/GABA current: 0.02 ± 0.01
Tadpole; [3]
  EC50: 1160 ± 210 nM
Tadpole; [4]
  EC50: 5480 ± 120 nM
other
  melting point: 160 to 162 °C

## C[C@@]12CC[C@H](O)C[C@H]1CC[C@@H]1[C@H]3CC(=O)C[C@@H]3CC[C@H]12 [KK-114]
[1]
  IC50: 1520 nM
[2]
  ratio of currents measured in the presence/absence of added compound, 0.1 μM: 0.93 ± 0.02
  ratio of currents measured in the presence/absence of added compound, 1.0 μM: 1.13 ± 0.02
  ratio of currents measured in the presence/absence of added compound, 10 μM: 3.56 ± 0.15
  (gating) 10 μM: ratio of compound only current/GABA current: 0.01 ± 0.02
Tadpole; [3]
  EC50: 3640 ± 2170 nM
Tadpole; [4]
  EC50: > 10000 nM
other
  melting point: 174 to 177 °C

## CO[C@H]1[C@H]2CC[C@H]3[C@@H](CC[C@@]4(C)C(=O)CC[C@H]34)[C@]2(C)CC[C@@H]1O [KK-117, (3β,4α,5β,8α,9β,10α,13α,14β)-3-Hydroxy-4-methoxyandrostan-17-one]
[1]
  IC50: 198 ± 25 nM
[2]
  ratio of currents measured in the presence/absence of added compound, 0.1 μM: 1.21 ± 0.02
  ratio of currents measured in the presence/absence of added compound, 1.0 μM: 3.67 ± 0.33
  ratio of currents measured in the presence/absence of added compound, 10 μM: 12.21 ± 1.26
  (gating) 10 μM: ratio of compound only current/GABA current: 0.05 ± 0.03
Tadpole; [3]
  EC50: 590 ± 70 nM
Tadpole; [4]
  EC50: 2940 nM
other
  melting point: 215 to 218 °C

## CO[C@@H]1C[C@@H]2[C@H]3CC[C@@H]4C[C@@H](O)CC[C@@]4(C)[C@@H]3CC[C@@]2(C)C1 [KK-134, (3β,5β,8α,9β,10α,13α,14β,16α)-16-Methoxyandrostan-3-ol]
[1]
  IC50: 92 ± 9 nM
[2]
  ratio of currents measured in the presence/absence of added compound, 0.1 μM: 1.16 ± 0.07
  ratio of currents measured in the presence/absence of added compound, 1.0 μM: 5.22 ± 1.09
  ratio of currents measured in the presence/absence of added compound, 10 μM: 8.27 ± 1.27
  (gating) 10 μM: ratio of compound only current/GABA current: 0.04 ± 0.05
Tadpole
  tadpoles that lost LRR: 10/10^a
  tadpoles that lost LSR: 10/10^a
other
  melting point: 169 to 171 °C

## CC(=O)[C@@H]1C[C@@H]2[C@H]3CC[C@@H]4C[C@@H](O)CC[C@@]4(C)[C@@H]3CC[C@@]2(C)C1 [KK-135, (3β,5β,8α,9β,10α,13α,14β,16α)-16-Acetylandrostan-3-ol]
[1]
  IC50: 184 ± 11 nM
[2]
  ratio of currents measured in the presence/absence of added compound, 0.1 μM: 1.17 ± 0.09
  ratio of currents measured in the presence/absence of added compound, 1.0 μM: 3.26 ± 0.31
  ratio of currents measured in the presence/absence of added compound, 10 μM: 6.21 ± 0.31
  (gating) 10 μM: ratio of compound only current/GABA current: −0.04 ± 0.06
Tadpole
  tadpoles that lost LRR: 10/10^a
  tadpoles that lost LSR: 10/10^a
other
  melting point: 169 to 172 °C

## C[C@@]12CC[C@H](O)C[C@@H]1CC[C@H]1[C@H]2CC[C@@]2(C)C=C(C#N)C[C@H]12 [KK-136, (3β,5α,8α,9β,10α,13α,14β)-3-Hydroxyandrost-16-ene-16-carbonitrile]
[1]
  IC50: 335 ± 27 nM
[2]
  ratio of currents measured in the presence/absence of added compound, 0.1 μM: 0.98 ± 0.02
  ratio of currents measured in the presence/absence of added compound, 1.0 μM: 1.98 ± 0.14
  ratio of currents measured in the presence/absence of added compound, 10 μM: 10.04 ± 1.26
  (gating) 10 μM: ratio of compound only current/GABA current: 0.29 ± 0.25
Tadpole; [3]
  EC50: 480 ± 20 nM
Tadpole; [4]
  EC50: 1730 ± 30 nM
other
  melting point: 195 to 197 °C

## C[C@@]12CC[C@@H]3[C@H](CC[C@H]4C[C@@H](O)CC[C@]43C)[C@H]1C[C@@H](C#N)C2 [KK-137, (3β,5α,8α,9β,10α,13α,14β,16α)-3-Hydroxyandrost-16-carbonitrile]
[1]
  IC50: 22 ± 4 nM
[2]
  ratio of currents measured in the presence/absence of added compound, 0.1 μM: 2.32 ± 0.17
  ratio of currents measured in the presence/absence of added compound, 1.0 μM: 7.08 ± 0.54
  ratio of currents measured in the presence/absence of added compound, 10 μM: 10.17 ± 0.68
  (gating) 10 μM: ratio of compound only current/GABA current: −0.04 ± 0.08
Tadpole; [3]
  EC50: 130 nM
Tadpole; [4]
  EC50: 550 ± 10 nM
other
  melting point: 155 to 157 °C

## C[C@@]12CC[C@@H]3[C@H](CC[C@@H]4C[C@@H](O)CC[C@]43C)[C@H]1CC(=CC#N)C2 [KK-138, 2-[(3β,5β,8α,9β,10α,13α,14β)-3-Hydroxyandrostan-16-ylidene]-acetonitrile]
[1]
  IC50: 32 ± 3 nM
[2]
  ratio of currents measured in the presence/absence of added compound, 0.1 μM: 1.63 ± 0.23
  ratio of currents measured in the presence/absence of added compound, 1.0 μM: 5.87 ± 1.65
  ratio of currents measured in the presence/absence of added compound, 10 μM: 10.16 ± 3.18
  (gating) 10 μM: ratio of compound only current/GABA current: 0.14 ± 0.06
Tadpole; [3]
  EC50: 140 nM
Tadpole; [4]
  EC50: 870 nM
other
  melting point: 162 to 172 °C
